The record followed here is patent US9072297B2, “Herbicidal composition” (ISHIHARA SANGYO KAISHA, LTD., priority 2010, dated 2015).

Common to all, as to assay type: in vivo
Test [1] has as its system surinam grass (Brachiaria decumbens Stapf.). In words: Test Example 2: foliar application pot test, surinam grass. The settings on record: Urochloa decumbens, read-out: Growth inhibition rate (%) of surinam grass Measured value. How it is done: (§1) Growth inhibition rate (%)= • 0:equivalent to the non-treated area to 100:complete kill
Upland field soil was put into a 1/1,000,000 ha pot, and seeds of surinam grass (Brachiaria decumbens Stapf.) were sown. When the surinam grass reached 2.8 to 3.2 leaf stage, a predetermined amount of each herbicidal composition was diluted with water (corresponding to 200 L/ha) containing 0.25 vol % of an agricultural adjuvant (tradename: Agral, manufactured by Syngenta) and applied by foliar application with a small sprayer.
(§2) On the 28th day after application, the state of growth of the plant was visually observed.

Test [2] deals with field bindweed (Convolvulus arvensis L.). In words: Test Example 4: soil application pot test, field bindweed. The settings on record: read-out: Growth inhibition rate (%) of field bindweed Measured value. How it is done:
as §1
Upland field soil was put into a 1/1,000,000 ha pot, and seeds of field bindweed (Convolvulus arvensis L.) were sown. On the day after application, a predetermined amount of each herbicidal composition was diluted with water corresponding to 200 L/ha and applied by soil application with a small sprayer.
(§3) On the 42nd day after application, the state of growth of the plant was visually observed.

In test [3] the test system is crabgrass (Digitaria ciliaris (Retz.) Koel). In words: Test Example 6: foliar application pot test, crabgrass 3.8 to 4.0 leaf stage. The settings on record: read-out: Growth inhibition rate (%) of crabgrass Measured value. On the procedure: as §1
Upland field soil was put into a 1/1,000,000 ha pot, and seeds of crabgrass (Digitaria ciliaris (Retz.) Koel) were sown. When crabgrass reached 3.8 to 4.0 leaf stage, a predetermined amount of each herbicidal composition was diluted with water (corresponding to 200 L/ha) containing 0.25 vol % of an agricultural adjuvant (tradename: Agral, manufactured by Syngenta) and applied by foliar application with a small sprayer.
as §2

Test [4] has as its system guineagrass (Panicum maximum Jacq.). In words: Test Example 1: foliar application pot test, guineagrass. The settings on record: Megathyrsus maximus, read-out: Growth inhibition rate (%) of guineagrass Measured value. How it is done:
(§4) Upland field soil was put into a 1/1,000,000 ha pot, and seeds of various plants were sown. When the plants reached certain leaf stages (guineagrass (Panicum maximum Jacq.): 4.5 to 5.0 leaf stage, crabgrass (Digitaria ciliaris (Retz.) Koel): 3.0 to 4.2 leaf stage), a predetermined amount of each herbicidal composition was diluted with water (corresponding to 200 L/ha) containing 0.25 vol % of an agricultural adjuvant (tradename: Agral, manufactured by Syngenta) and applied by foliar application with a small sprayer.
(§5) On the 28th day after application, the state of growth of the plants were visually observed and evaluated in accordance with the following evaluation standard. The growth inhibition rate (%) (measured value) and the growth inhibition rate (%) (calculated value) calculated by the Colby's formula are shown in Tables 1 and 2.
as §1

The test system of test [5] is crabgrass (Digitaria ciliaris (Retz.) Koel). In words: Test Example 1: foliar application pot test, crabgrass. The settings on record: read-out: Growth inhibition rate (%) of crabgrass Measured value. How it is done: as §4, §5, §1
For test [6], the system named is surinam grass (Brachiaria decumbens Stapf.). In words: Test Example 3: soil application pot test, surinam grass. The settings on record: Urochloa decumbens, read-out: Growth inhibition rate (%) of surinam grass Measured value. How it is done:
as §1
Upland field soil was put into a 1/1,000,000 ha pot, and seeds of surinam grass (Brachiaria decumbens Stapf.) were sown. On the day after application, a predetermined amount of each herbicidal composition was diluted with water corresponding to 200 L/ha and applied by soil application with a small sprayer.
as §3

Test [7] deals with crabgrass (Digitaria ciliaris (Retz.) Koel). In words: Test Example 5: foliar application pot test, crabgrass (MonFast adjuvant). The settings on record: read-out: Growth inhibition rate (%) of crabgrass Measured value. How it is done: as §1
Upland field soil was put into a 1/1,000,000 ha pot, and seeds of crabgrass (Digitaria ciliaris (Retz.) Koel) were sown. When crabgrass reached 3.0 to 4.2 leaf stage, a predetermined amount of each herbicidal composition was diluted with water (corresponding to 200 L/ha) containing 0.2 vol % of an agricultural adjuvant (tradename: MonFast, manufactured by Monsanto) and applied by foliar application with a small sprayer.
as §2

Test [8] shares this test system. In words: Test Example 7: foliar application pot test, crabgrass 4.5 leaf stage. The settings on record: read-out: Growth inhibition rate (%) of crabgrass Measured value; for inhibition at 300 g/ha: foliar. How it is done:
as §1
Upland field soil was put into a 1/1,000,000 ha pot, and seeds of crabgrass (Digitaria ciliaris (Retz.) Koel) were sown. When crabgrass reached 4.5 leaf stage, a predetermined amount of each herbicidal composition was diluted with water (corresponding to 200 L/ha) containing 0.25 vol % of an agricultural adjuvant (tradename: Agral, manufactured by Syngenta) and applied by foliar application with a small sprayer.
as §2

On to `CN(C)C(=O)Nc1ccc(Cl)c(Cl)c1` [Diuron, 3-(3,4-dichlorophenyl)-1,1-dimethylurea], for which the inhibition at 1250 g/ha in test [1] (foliar) and in test [2] (soil) was 0% each time. The inhibition (in general, the change of the read-out against control, counted positive when it falls) at 3000 g/ha in test [3] (foliar) stood at 80%.

On to `COc1cc(OC)nc(NC(=O)NS(=O)(=O)c2ncccc2C(F)(F)F)n1` [Flazasulfuron, 1-(4,6-dimethoxypyrimidin-2-yl)-3-(3-trifluoromethyl-2-pyridylsulfonyl)urea], for which, in test [4] (dose 20 g/ha, foliar application, 4.5 to 5.0 leaf stage, 28th day after application), the inhibition at 20 g/ha stood at 90%. Besides, the inhibition at 37.5 g/ha in test [4] (dose 37.5 g/ha, foliar application, 4.5 to 5.0 leaf stage, 28th day after application) came out at 92%; in test [1] (dose 37.5 g/ha, foliar application, 2.8 to 3.2 leaf stage, 28th day after application), 45%; in test [2] (dose 37.5 g/ha, soil application, 42nd day after application), 25%. Also, the inhibition at 25 g/ha in test [5] (dose 25 g/ha, foliar application, 3.0 to 4.2 leaf stage, Agral, 28th day after application) was 40%; in test [6] (dose 25 g/ha, soil application, 42nd day after application) it was 70%. The inhibition at 30 g/ha in test [7] (dose 30 g/ha, foliar application, 3.0 to 4.2 leaf stage, MonFast, 28th day after application) turned out to be 50%. Further, the inhibition at 40 g/ha in test [7] (dose 40 g/ha, foliar application, 3.0 to 4.2 leaf stage, MonFast, 28th day after application) was found to be 58%. For the same compound, the inhibition at 15 g/ha in test [3] (dose 15 g/ha, foliar application, 3.8 to 4.0 leaf stage, Agral, 28th day after application) came to 40%. Besides, the inhibition at 100 g/ha in test [8] (dose 100 g/ha, foliar application, 4.5 leaf stage, Agral, 28th day after application) stood at 73%.

On to `CON(C)C(=O)Nc1ccc(Br)cc1` [Metobromuron, 3-(4-bromophenyl)-1-methoxy-1-methylurea], for which, in test [7] (foliar), the inhibition at 500 g/ha is 0% and the inhibition at 1000 g/ha stood at 0%. In addition, in test [8], the inhibition at 300 g/ha was determined as 5%.

On to `CNC(=O)N(C)c1nnc(C(C)(C)C)s1` [Tebuthiuron, 1-(5-tertiarybutyl-1,3,4-thiadiazol-2-yl)-1,3-dimethylurea], for which the inhibition at 500 g/ha was 15% in test [4] (foliar), 0% in test [5] (foliar) and 28% in test [6] (soil). The inhibition at 300 g/ha in test [8] was determined as 17%.
